This passage reports EC50 results from patent US7820707B2, “Heterocyclic derivatives” (N.V. Organon, priority 2006, dated 2010).

This assay addresses T1, AMPA (GluR1) receptor (Homo sapiens, UniProt P42261).
T1 construct: expressed in transfected cells; host or cells: HEK cells (HEK.GluR1(i), kept under hygromycin selection)
The experiment in a line: Ca2+ influx assay (FLEXstation, Fluo-3) for positive modulation of the AMPA (GluR1) receptor in HEK.GluR1(i) cells. It is filed as cell-based. To be noted: glutamate +/- test compound, Ca2+ response with fluo3-AM. From the text:
The compounds in this invention may be tested using a biological assay which measures Ca^2+ influx mediated through positive modulation of the AMPA (GluR1) receptor using standard techniques in the art such as, but not limited to, a FLEXstation (manufactured by Molecular Devices, Sunnyvale, Calif.). An optical readout using fluorescent probes is employed to measure ion channel dependent changes in intracellular ion concentration or membrane potential. The assay utilises the Ca^2+ conductance of functional homomeric GluR1(i) AMPA receptors to generate glutamate-dependent Ca^2+ responses. Influx of Ca^2+ through the ion channel is measured indirectly through an increase in intracellular Ca^2+ levels using the calcium sensitive dye such as, but not limited to, Fluo-3 (Molecular Devices, Sunnyvale, Calif.) in FLEXstation. A positive AMPA receptor modulator, in the presence of glutamate, will result in an influx of Ca^2+ through the ion channel which can be measured indirectly through an increase in intracellular Ca^2+ levels using the calcium sensitive dye Fluo-3 in FLEXstation.
HEK.GluR1(i) cells were maintained in DMEM supplemented with 10% fetaclone II, 1% non-essential amino acids and 150 μg/mL hygromycin, at 37° C./5% CO2. […]

T1 sequence (P42261 19-906 isoform P42261-2 limits assumed, species assumed): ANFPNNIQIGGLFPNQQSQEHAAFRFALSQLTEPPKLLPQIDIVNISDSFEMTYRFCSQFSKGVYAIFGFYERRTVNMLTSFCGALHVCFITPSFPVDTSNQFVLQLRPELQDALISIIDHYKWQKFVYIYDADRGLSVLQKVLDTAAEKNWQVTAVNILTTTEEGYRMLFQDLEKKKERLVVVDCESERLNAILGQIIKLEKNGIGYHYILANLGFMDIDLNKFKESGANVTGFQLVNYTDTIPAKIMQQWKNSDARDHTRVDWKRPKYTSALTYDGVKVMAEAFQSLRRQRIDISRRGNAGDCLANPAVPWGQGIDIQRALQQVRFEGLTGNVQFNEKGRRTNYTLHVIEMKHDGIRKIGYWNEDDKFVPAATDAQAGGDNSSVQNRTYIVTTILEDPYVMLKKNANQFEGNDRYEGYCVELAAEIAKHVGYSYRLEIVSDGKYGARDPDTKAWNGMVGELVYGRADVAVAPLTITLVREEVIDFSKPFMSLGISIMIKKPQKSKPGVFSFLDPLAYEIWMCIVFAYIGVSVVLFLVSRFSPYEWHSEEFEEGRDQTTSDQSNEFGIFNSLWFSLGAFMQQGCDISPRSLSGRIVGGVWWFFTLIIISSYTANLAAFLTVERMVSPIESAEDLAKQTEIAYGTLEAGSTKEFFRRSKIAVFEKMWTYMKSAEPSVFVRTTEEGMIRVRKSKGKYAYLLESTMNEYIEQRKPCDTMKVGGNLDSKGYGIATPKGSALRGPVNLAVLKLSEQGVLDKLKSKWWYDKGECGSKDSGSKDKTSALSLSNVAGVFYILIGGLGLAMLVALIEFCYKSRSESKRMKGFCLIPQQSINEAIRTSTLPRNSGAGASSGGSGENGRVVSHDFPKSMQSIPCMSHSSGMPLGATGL

Compound `CC(O)c1cn(CC(=O)Nc2sc3c(c2C(N)=O)CCCC3)nc1C(F)(F)F` (stereo not shown) [Example 67, 2-(2-(4-(1-hydroxyethyl)-3-(trifluoromethyl)-1H-pyrazol-1-yl)acetamido)-4,5,6,7-tetrahydrobenzo[b]thiophene-3-carboxamide] displayed an EC50 of 2200 nM.

By EC50 is commonly meant the concentration that produces a half-maximal response. Low values mean higher potency in that assay, high ones lower potency in that assay.
